# Columns and labels:
# [1] = system: HCV Con1 subgenomic replicon of genotype 1b (GS4.1 cells); experiment: microbe, parasite or virus in culture; assay type: cell-based, HCV genotype 1b; conditions: Hepatitis C virus; for EC50: 72 h
# in vitro = conditions: human
SMILES,IC50 [1] [nM],EC50 [1] [µM],CC50 (in vitro) [µM]
"CCOP(=O)(Nc1cc(-c2ccc(F)cc2)sc1C(=O)O)c1ccc(C)cc1C (centres unmarked) [Compound 22, 2-Thiophenecarboxylic acid, 3-N-[(2,4-dimethyl-phenyl)-phosphonamidateethyl ester]-5-(4-fluorophenyl)]",100 to 8300,0.1 to 8.3,> 8.3
CCOP(=O)(Nc1cc(-c2ccc(F)cc2)sc1C(=O)O)c1ccc(Cl)cc1Cl (centres unmarked) [Compound 23],100 to 8300,> 8.3,> 8.3
"COP(=O)(Nc1cc(-c2ccccc2)sc1C(=O)O)c1ccccc1 (centres unmarked) [Compound 25, 2-Thiophenecarboxylic acid, 3-N-(phenyl-phosphonamidatemethyl ester)-5-phenyl]",> 8300,> 8.3,> 8.3
COP(=O)(Nc1cc(-c2ccc(-c3cc4ncccn4n3)cc2)sc1C(=O)O)c1ccc(C)cc1C (centres unmarked) [Compound 26],< 100,< 0.1,> 8.3
"COP(=O)(Nc1cc(-c2ccccc2)sc1C(=O)O)c1ccc(C)cc1C (centres unmarked) [Compound 27, 2-Thiophenecarboxylic acid, 3-N-[(2,4-dimethyl-phenyl)-phosphonamidatemethyl ester]-5-phenyl]",< 100,0.1 to 8.3,> 8.3
"CCOP(=O)(Nc1cc(-c2ccccc2)sc1C(=O)O)c1ccc(Cl)cc1Cl (centres unmarked) [Compound 28, 2-Thiophenecarboxylic acid, 3-N-[(2,4-dichlorophenyl)-phosphonamidateethyl ester]-5-phenyl]",100 to 8300,> 8.3,> 8.3
"CCOP(=O)(Nc1cc(-c2ccc(C#N)cc2)sc1C(=O)O)c1ccc(Cl)cc1Cl (centres unmarked) [Compound 29, 2-Thiophenecarboxylic acid, 3-N-[(2,4-dichlorophenyl)-phosphonamidateethyl ester]-5-(4-cyanophenyl)]",,> 8.3,> 8.3
"CCOP(=O)(c1ccc(C)cc1C)N(c1cc(-c2ccc(F)cc2)sc1C(=O)O)C(C)C (centres unmarked) [Compound 33, 2-Thiophenecarboxylic acid, 3-N-isopropyl-N-[(2,4-dimethyl-phenyl)-phosphonamidateethyl ester]-5-(4-fluorophenyl)]",100 to 8300,0.1 to 8.3,> 8.3
COP(=O)(Nc1cc(-c2ccc(Cl)cc2F)sc1C(=O)O)c1ccc(C)cc1C (centres unmarked) [Compound 79],< 100,0.1 to 8.3,> 8.3
COP(=O)(Nc1cc(-c2ccccc2F)sc1C(=O)O)c1ccc(C)cc1C (centres unmarked) [Compound 80],100 to 8300,> 8.3,> 8.3
COc1ccncc1-c1cc(NP(=O)(OC)c2ccc(C)cc2C)c(C(=O)O)s1 (centres unmarked) [Compound 82],100 to 8300,0.1 to 8.3,> 8.3
COP(=O)(Nc1cc(-c2ccc(-c3cc4ncccc4o3)cc2)sc1C(=O)O)C1CC=C(C)CC1 (centres unmarked) [Compound 83],< 100,0.1 to 8.3,> 8.3
CCCOP(=O)(Nc1cc(-c2ccc(Cl)cc2)sc1C(=O)O)c1ccc(C)cc1C (centres unmarked) [Compound 87],100 to 8300,0.1 to 8.3,> 8.3
COP(=O)(Nc1cc(-c2cccc(F)c2)sc1C(=O)O)c1ccc(C)cc1C (centres unmarked) [Compound 88],100 to 8300,0.1 to 8.3,> 8.3
Cc1ccc(P(=O)(Nc2cc(-c3ccc(Cl)cc3)sc2C(=O)O)OC(C)C)c(C)c1 (centres unmarked) [Compound 89],100 to 8300,0.1 to 8.3,> 8.3
COP(=O)(Nc1cc(-c2cc3ccccc3o2)sc1C(=O)O)c1ccc(C)cc1C (centres unmarked) [Compound 96],< 100,0.1 to 8.3,> 8.3
COP(=O)(Nc1cc(-c2cc3ccccc3s2)sc1C(=O)O)c1ccc(C)cc1C (centres unmarked) [Compound 97],< 100,0.1 to 8.3,> 8.3
COP(=O)(Nc1cc(-c2cccs2)sc1C(=O)O)c1ccc(C)cc1C (centres unmarked) [Compound 98],100 to 8300,0.1 to 8.3,> 8.3
COP(=O)(Nc1cc(-c2cccnc2)sc1C(=O)O)c1ccc(C)cc1C (centres unmarked) [Compound 99],100 to 8300,> 8.3,> 8.3

# Reference: US8193372B2, “Phosphothiophene and phosphothiazole HCV polymerase inhibitors” (Idenix Pharmaceuticals, Inc., priority 2009, dated 2012)
